Measured values from patent publication US20090113563A1, “Probe for detecting nuclear receptor agonist or antagonist and method for screening agonist or antagonist to nuclear receptor with the use of the same” (priority 2004, published 2009).
Each block holds one molecule with its values, some of them ahead of it. No end group written: not given here.

How the values were obtained:
[1] = molecular target: T1, human estrogen receptor αLBD (Homo sapiens, UniProt P03372); assay: FRET probe (CFP-SRC-1 LXXLL-linker-ER αLBD-YFP) for estrogen receptor agonist/antagonist in living CHO-K1 cells; type: cell-based
T1 construct: expressed in transfected cells; host or cells: CHO-K1 (Chinese hamster ovary), pcDNA3.1(+)
T1 sequence (P03372 with tags, fused parts or gaps L306P/I326L/L327I/T334S/V368G/T371N/T483N/Q502R/S527N): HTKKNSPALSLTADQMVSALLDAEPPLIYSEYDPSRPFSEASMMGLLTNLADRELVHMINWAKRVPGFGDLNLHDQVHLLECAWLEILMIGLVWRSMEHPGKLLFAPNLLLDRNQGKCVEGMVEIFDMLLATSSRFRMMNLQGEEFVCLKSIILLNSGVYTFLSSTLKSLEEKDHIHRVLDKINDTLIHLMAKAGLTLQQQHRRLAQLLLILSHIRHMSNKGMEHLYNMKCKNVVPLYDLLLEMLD
Protocol: (§1) Each cell was cultured in Ham's F-12 medium supplemented with 10% fetal calf serum (FCS)b and Dulbecco's modified eagle medium supplemented with 10% FCS, 1.0 mM sodium pyruvate and 0.1 mM nonessential amino acids respectively at 37° C. in a humidified atmosphere 5% CO2. Cells were transfected with an expression vector pcDNA3.1(+) containing a probe in the presence of lipofectAMINE 2000 reagent in glass bottom dishes.
(§2) The cells were Chinese hamster ovary (CHO-K1) cells for a probe for detecting an agonist or an antagonist to an estrogen receptor or a peroxisome growth factor-activating receptor, and pig kidney (PK-15) cells for a probe for detecting an agonist or an antagonist to an androgen receptor.
(§3) Before imageing, the culture medium was replaced with Hanks' balanced salt solution.
(§4) The exposure time at 440±10 nm excitation was 100 ms.
The ED50 values were converted to relative recruitment ability (RRA; Non-Patent Document 34) to compare the relative abilities of the tested compounds to promote the recruitment of the binding-responsive site to the ligand-recognition site. The RRA were calculated using the following equation.

PPAR γ-LBD = molecular target: T2, PPAR γ-LBD (Homo sapiens, UniProt P37231); assay: FRET probe for peroxisome proliferator-activated receptor agonist/antagonist in living CHO-K1 cells; type: cell-based; conditions: 10 μM
T2 construct: expressed in transfected cells; host or cells: CHO-K1, pcDNA3.1(+)
T2 sequence (P37231 235-505): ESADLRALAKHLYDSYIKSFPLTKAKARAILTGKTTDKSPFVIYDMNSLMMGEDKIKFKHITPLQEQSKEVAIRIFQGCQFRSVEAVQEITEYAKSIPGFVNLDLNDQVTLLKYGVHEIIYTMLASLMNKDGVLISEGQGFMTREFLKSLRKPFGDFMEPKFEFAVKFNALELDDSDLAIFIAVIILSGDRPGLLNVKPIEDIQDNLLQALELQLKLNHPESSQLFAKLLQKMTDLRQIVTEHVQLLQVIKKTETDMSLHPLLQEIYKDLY
Protocol: According to nearly the same procedure as in the case of the above (A), a plasmid was constructed.
as §1, §2, §3, §4

[2] = molecular target: T3, human androgen receptor LBD (Homo sapiens, UniProt P10275); assay: FRET probe for androgen receptor agonist/antagonist in living PK-15 cells; type: cell-based
T3 construct: expressed in transfected cells; host or cells: PK-15 (pig kidney), pcDNA3.1(+)
T3 sequence (P10275 674-912): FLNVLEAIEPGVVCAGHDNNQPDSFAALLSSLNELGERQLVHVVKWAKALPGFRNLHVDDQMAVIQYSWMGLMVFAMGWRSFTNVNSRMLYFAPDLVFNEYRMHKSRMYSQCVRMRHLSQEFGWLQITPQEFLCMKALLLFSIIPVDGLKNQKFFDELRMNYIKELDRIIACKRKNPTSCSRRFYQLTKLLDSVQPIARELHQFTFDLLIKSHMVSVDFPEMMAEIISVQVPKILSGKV
Protocol: According to nearly the same procedure as in the cases of the above (A) and (B), a plasmid was constructed.
as §1, §2, §3, §4

[3] = molecular target: T4, peroxisome growth factor-activating receptor γ ligand-binding domain (235-505aa) (Homo sapiens (Human), UniProt P37231 235-505); assay: intramolecular CFP/YFP FRET of the probe in CHO-K1 cells, 10 µM 15d-PGJ2
T4 construct: also called PPAR γ-LBD
T4 sequence: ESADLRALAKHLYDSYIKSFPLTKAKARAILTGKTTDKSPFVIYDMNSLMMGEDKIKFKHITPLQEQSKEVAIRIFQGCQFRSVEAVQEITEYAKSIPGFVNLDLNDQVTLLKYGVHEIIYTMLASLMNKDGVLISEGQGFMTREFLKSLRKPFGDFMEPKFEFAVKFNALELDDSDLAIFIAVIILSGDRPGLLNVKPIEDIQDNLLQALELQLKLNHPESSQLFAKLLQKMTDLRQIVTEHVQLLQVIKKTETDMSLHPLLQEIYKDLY
Protocol: CHO-K1 cells expressing the probe (FIG. 2B) were stimulated by 10 μM 15d-PGJ₂ and the event was observed by following time course fo the changes in FRET.

[4] = molecular target: T5, human estrogen receptor α ligand-binding domain (305-550aa) (human, UniProt P03372 305-550); assay: cell-based or functional assay
T5 sequence (looked up): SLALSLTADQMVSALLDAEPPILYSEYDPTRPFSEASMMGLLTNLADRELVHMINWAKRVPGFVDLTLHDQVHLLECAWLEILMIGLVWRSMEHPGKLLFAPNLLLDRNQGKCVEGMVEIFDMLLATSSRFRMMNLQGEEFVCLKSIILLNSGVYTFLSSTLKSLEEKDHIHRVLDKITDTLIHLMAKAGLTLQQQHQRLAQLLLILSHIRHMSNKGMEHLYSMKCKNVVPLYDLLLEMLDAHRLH

[5] = molecular target: T6, human androgen receptor ligand-binding domain (672-910aa) (human, UniProt O97775 665-903 (Pan troglodytes entry)); assay: intramolecular CFP/YFP FRET in living cells, 100 nM DHT
T6 construct: also called AR-LBD; ligand-recognition site
T6 sequence: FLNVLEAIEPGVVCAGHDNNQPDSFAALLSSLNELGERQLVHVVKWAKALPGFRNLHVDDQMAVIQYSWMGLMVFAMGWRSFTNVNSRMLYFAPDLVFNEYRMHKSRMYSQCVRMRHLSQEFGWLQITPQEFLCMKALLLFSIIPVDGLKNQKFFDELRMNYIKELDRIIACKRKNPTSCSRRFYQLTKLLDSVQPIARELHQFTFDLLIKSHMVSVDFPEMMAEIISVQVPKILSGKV

[6] = molecular target: T5, human estrogen receptor α …; assay: intramolecular CFP/YFP FRET in living cells, 100 nM E2

Molecule: 4-hydroxytamoxifen [OHT]
change in FRET response [1]: no increase in the FRET

Molecule: CCCCC/C=C/C=C1/C(=O)C=C[C@@H]1C/C=C\CCCC(=O)O [15d-PGJ2, 15-deoxy-Δ^12,14-prostaglandin J2]
change in CFP/YFP emission ratio (480/535 nm) (PPAR γ-LBD; FIG. 4B-a): decrease in CFP/YFP emission ratio (480/535 nm) (increase in FRET)
time for emission ratio decrease to reach plateau (PPAR γ-LBD; FIG. 4B-a): ≤ 1000 s

Molecule: CC(C)(c1ccc(OCC2CO2)cc1)c1ccc(OCC2CO2)cc1 (stereo not drawn) [BADGE, bisphenol A diglycidyl ether]
change in emission ratio (FRET response) (PPAR γ-LBD; FIG. 7): no significant change in the emission ratio

Molecule: C[C@]12CCC(=O)C=C1CC[C@@H]1[C@@H]2[C@@H](O)C[C@@]2(C)[C@H]1CC[C@]2(O)C(=O)CO [cortisol]
FRET response over tested concentration range ([2]; PK-15 cells, 1.0×10^−4 to 1.0×10^−11 M, FIG. 5B): did not show the response at any tested concentration

Molecule: CC12CC1(C)C(=O)N(c1cc(Cl)cc(Cl)c1)C2=O (stereo not drawn) [procymidone]
change in FRET response, antagonist alone ([2]; 100 nM alone, PK-15, FIG. 8): no significant increase in the FRET
FRET response with DHT plus antagonist ([2]; DHT 1.0, 10, 100 nM + 10 μM antagonist, PK-15, FIG. 8): the FRET level increased in a dose dependent manner of DHT

Molecule: nonylphenol [NP]
relative recruitment ability (RRA) ([1]; RRA=(conc. E2 [50% response]/conc. EDC [50% response])×100, E2 set at 100): 3.0
EC50 ([1]; read-out: EC50 (concentration inducing 50% response of LXXLL motif recruitment to ER αLBD), CHO-K1 cells expressing the probe, from response curves of FIG. 5A, tested 1.0×10^−4 to 1.0×10^−11 M): 260 nM

binding result [3]: binds
EC50 of the small-molecule ligand DES for the FRET response of the probe (CHO-K1 cells) [4]: 13 nM
EC50 of the small-molecule ligand E2 for the FRET response of the probe (CHO-K1 cells) [4]: 8 nM
EC50 of the small-molecule ligand NP for the FRET response of the probe (CHO-K1 cells) [4]: 260 nM
B1: steroid receptor coactivator 1 NR box II (687-697aa) coactivator peptide (peptide)
peptide: HKILHRLLQEG
modifications: also: segment of CFP–NR box–GGNGG-type linker–LBD–YFP fusion probe
notes: Not tested as a free peptide; also called SRC-1 NR box II

binding result [5]: no binding
binding result [6]: no binding
Molecule: HKIAHRAAQEG (also called mutant LXXLL motif)
